Test results reported in US20250059220A1, “SUBSTITUTED BENZOTHIOPHENE DERIVATIVES AND METHODS OF USE THEREOF” (Merck Sharp & Dohme LLC, priority 2021, published 2025).

How the values were obtained:
human PTPN2 (1-387) = human PTPN2 (1-387) (Homo sapiens (Human), UniProt P17706); assay: Human PTPN2 Biochemical Assay; conditions: DiFMUP substrate
Description: Human PTPN2 Biochemical Assay
Test compounds were dissolved in DMSO, and 10-point serial 3-fold dilution series in DMSO were prepared in Echo Qualified 384-well Polypropylene Microplates (Labcyte, San Jose, CA) (top concentration 50 µM). Assay plates (384-well low volume black plates; Corning #3820, Corning, NY) were prepared by dispensing 50 nL of test compound, and DMSO (for high and low controls) by ECHO acoustic dispenser (Labcyte, San Jose CA). This was followed by addition of 5 μL of 0.2 nM human PTPN2 (1-387) solution (prepared in the assay buffer, 50 mM Tris pH 7.4, 150 mM NaCl, 0.01% Tween20, 0.5 mM dithiothreitol) to all wells except the low control. 5 μl of assay buffer was added into the low control, then the plate was incubated for 30 minutes at room temperature. Subsequently, 5 μl of 100 µM DiFMUP (6,8-difluoro-4-methylumbelliferyl phosphate) solution (prepared in assay buffer from 10 mM stock in DMSO) was added to the assay plate and incubated for 1 hour at room temperature. For detection, assay plates were read on SpectraMax Microplate Reader (Molecular Devices), with Excitation wavelength=360 nm and Emission wavelength=460 nm. Test compound effects were normalized to the window defined by the controls, DMSO/buffer, and DMSO/50 pM human PTPN2. Calculated % effects were fit using a 4-parameter algorithm, and EC50 was reported.

human PTPN1 (1-435) = human PTPN1 (1-435) (Homo sapiens (Human), UniProt P18031); assay: Human PTPN1 Biochemical Assay; conditions: DiFMUP substrate, read-out: PTP1B IC50
Description: Human PTPN1 Biochemical Assay
Test compounds were dissolved in DMSO, and 10-point serial 3-fold dilution series in DMSO were prepared in Echo Qualified 384-well Polypropylene Microplates (Labcyte, San Jose, CA) (top concentration 50 µM). […] 5 μl of assay buffer was added into the low control. The plate was incubated for 30 minutes at room temperature. Subsequently, 5 μl of 100 µM DiFMUP (6,8-difluoro-4-methylumbelliferyl phosphate) solution (prepared in assay buffer from 10 mM stock in DMSO) was added to the assay plate and incubated for 1 hour at room temperature. For detection, assay plates were read on SpectraMax Microplate Reader (Molecular Devices), with Excitation wavelength=360 nm and Emission wavelength=460 nm. […] Calculated % effects were fit using a 4-parameter algorithm, and EC50 was reported.

Sequence of human PTPN2 (1-387) (P17706 other isoform, or with tags, fused parts or gaps): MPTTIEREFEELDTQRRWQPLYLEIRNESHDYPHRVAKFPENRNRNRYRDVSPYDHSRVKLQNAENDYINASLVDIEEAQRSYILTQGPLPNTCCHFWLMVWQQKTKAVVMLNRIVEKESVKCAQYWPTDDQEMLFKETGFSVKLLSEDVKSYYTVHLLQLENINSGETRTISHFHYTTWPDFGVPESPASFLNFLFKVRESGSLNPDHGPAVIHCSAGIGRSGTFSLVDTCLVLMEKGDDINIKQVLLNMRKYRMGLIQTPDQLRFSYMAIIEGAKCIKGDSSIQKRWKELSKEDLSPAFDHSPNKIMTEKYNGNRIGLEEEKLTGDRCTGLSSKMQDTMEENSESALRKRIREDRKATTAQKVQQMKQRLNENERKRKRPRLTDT
Sequence of human PTPN1 (1-435) (P18031 whole entry): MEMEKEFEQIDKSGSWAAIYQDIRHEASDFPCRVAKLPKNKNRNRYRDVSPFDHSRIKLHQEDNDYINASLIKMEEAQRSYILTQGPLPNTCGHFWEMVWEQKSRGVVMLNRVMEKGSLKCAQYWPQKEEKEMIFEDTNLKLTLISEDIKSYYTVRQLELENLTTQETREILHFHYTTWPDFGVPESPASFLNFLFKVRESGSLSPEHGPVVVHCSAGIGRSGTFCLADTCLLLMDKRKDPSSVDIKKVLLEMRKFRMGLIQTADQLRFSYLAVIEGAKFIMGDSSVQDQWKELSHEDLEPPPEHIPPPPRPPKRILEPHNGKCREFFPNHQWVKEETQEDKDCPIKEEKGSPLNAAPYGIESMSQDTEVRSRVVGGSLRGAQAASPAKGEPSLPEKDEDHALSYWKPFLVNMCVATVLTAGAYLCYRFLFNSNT

| IC50 (human PTPN2 (1-387)) | IC50 (human PTPN1 (1-435)) | Structure (SMILES) |
| --- | --- | --- |
| 29.9 nM | 41 nM | CNC(=O)c1cc(OCCCCS(C)(=O)=O)c2sc(C(F)(F)P(=O)(O)O)c(Br)c2c1 [Compound 324] |
| 17.1 nM | 26 nM | NC(=O)c1cc(OCc2ccc3c(c2)CCS3(=O)=O)c2sc(C(F)(F)P(=O)(O)O)c(Br)c2c1 [Compound 386] |
| 6700 nM | 3590 nM | CS(=N)(=O)c1cc(OCCCC(F)(F)F)c2sc(C(F)(F)P(=O)(O)O)c(Br)c2c1 (centres unmarked) [Compound 414] |
| 68.5 nM | 68.4 nM | NC(=O)c1cc(OCCC2CCC2)c2sc(C(F)(F)P(=O)(O)O)c(Br)c2c1 [Compound 317] |
| 2.5 nM | 2.9 nM | NC(=O)c1cc(OCc2ccc(S(N)(=O)=O)nc2)c2sc(C(F)(F)P(=O)(O)O)c(Br)c2c1 [Compound 380] |
| 128 nM | 66 nM | CS(=O)(=O)NCCCOc1cc(C(N)=O)cc2c(Br)c(C(F)(F)P(=O)(O)O)sc12 [Compound 256] |
| 5250 nM | 2380 nM | O=C(NCCSC(F)(F)F)c1ccc2sc(C(F)(F)P(=O)(O)O)c(Br)c2c1 [Compound 157] |
| 5980 nM | 2740 nM | CC(CC1C=Nc2ccc(F)cc21)NC(=O)c1ccc2sc(C(F)(F)P(=O)(O)O)c(Br)c2c1 (centres unmarked) [Compound 151] |
| 84.6 nM | 118 nM | NC(=O)c1cc(OCC2CCC(F)(F)CC2)c2sc(C(F)(F)P(=O)(O)O)c(Br)c2c1 [Compound 253] |
| 42.1 nM | 37 nM | CS(=O)(=O)CCCOc1cc(C(N)=O)cc2c(Cl)c(C(F)(F)P(=O)(O)O)sc12 [Compound 333] |
| 200 nM | 191 nM | O=C(O)c1cc(OCCCC(F)(F)F)c2sc(C(F)(F)P(=O)(O)O)c(Br)c2c1 [Compound 407] |
| 6170 nM | 4980 nM | O=C(NCc1nccc(-c2cccnc2)n1)c1ccc2sc(C(F)(F)P(=O)(O)O)c(Br)c2c1 [Compound 91] |
| 5.56 nM | 5 nM | O=P(O)(O)C(F)(F)c1sc2c(OCC3CC3(F)F)cc(-c3nc[nH]n3)cc2c1Br (centres unmarked) [Compound 442] |
| 7150 nM | 5530 nM | CS(=O)(=O)N1CC2(CC(NC(=O)c3ccc4sc(C(F)(F)P(=O)(O)O)c(Br)c4c3)C2)C1 [Compound 48] |
| 4240 nM | 3400 nM | N#CC1(CNC(=O)c2ccc3sc(C(F)(F)P(=O)(O)O)c(Br)c3c2)CC1 [Compound 38] |
| 78.6 nM | 49 nM | CC1(C)CC(COc2cc(C(N)=O)cc3c(Br)c(C(F)(F)P(=O)(O)O)sc23)C1 [Compound 292] |
| 83.3 nM | 158 nM | Cc1ccc(COc2cc(C(N)=O)cc3c(Br)c(C(F)(F)P(=O)(O)O)sc23)c(C)c1 [Compound 337] |
| 1460 nM |  | O=C(NCc1cccnn1)c1ccc2sc(C(F)(F)P(=O)(O)O)c(Br)c2c1 [Compound 31] |

| IC50 (human PTPN2 (1-387)) | IC50 (human PTPN1 (1-435)) | Structure (SMILES) |
| --- | --- | --- |
| 12.9 nM | 25.2 nM | NC(=O)c1cc(OCc2ccc(OC(F)F)cc2)c2sc(C(F)(F)P(=O)(O)O)c(Br)c2c1 [Compound 360] |
| 5800 nM | 4200 nM | O=C(NCc1ccccc1N1CCOCC1)c1ccc2sc(C(F)(F)P(=O)(O)O)c(Br)c2c1 [Compound 90] |
| 6.96 nM | 7.5 nM | C[C@@H](NC(=O)c1cc(OCCCC(F)(F)F)c2sc(C(F)(F)P(=O)(O)O)c(Br)c2c1)c1cccnn1 [Compound 208] |
| 96.4 nM | 139 nM | NC(=O)c1cc(OCCC2CC2)c2sc(C(F)(F)P(=O)(O)O)c(Br)c2c1 [Compound 255] |
| 227 nM | 259 nM | N#CCOc1cc(C(N)=O)cc2c(Br)c(C(F)(F)P(=O)(O)O)sc12 [Compound 244] |
| 21.6 nM | 23.3 nM | CS(=O)(=O)CCCOc1cc(C(N)=O)cc2c(Br)c(C(F)(F)P(=O)(O)O)sc12 [Compound 270] |
| 37.9 nM | 32.6 nM | NC(=O)c1cc(OCc2ccc(CS(N)(=O)=O)cc2)c2sc(C(F)(F)P(=O)(O)O)c(Br)c2c1 [Compound 376] |
| 159 nM | 406 nM | NC(=O)c1cc(OCc2ccc(C3CCN(CC(F)(F)F)CC3)cc2)c2sc(C(F)(F)P(=O)(O)O)c(Br)c2c1 [Compound 350] |
| 20.5 nM | 68.1 nM | CC1(c2ccc(COc3cc(C(N)=O)cc4c(Br)c(C(F)(F)P(=O)(O)O)sc34)cc2)CC1 [Compound 396] |
| 140 nM | 133 nM | CCCC(C)Oc1cc(C(N)=O)cc2c(Br)c(C(F)(F)P(=O)(O)O)sc12 (centres unmarked) [Compound 370] |
| 1610 nM | 1850 nM | O=P(O)(O)C(F)(F)c1sc2ccc(-c3ncc[nH]3)cc2c1Br [Compound 228, ((3-bromo-5-(1H-imidazol-2-yl)benzo[b]thiophen-2-yl)difluoromethyl)phosphonic acid] |
| 1800 nM | 1440 nM | O=C(Nc1ccc(Cn2cccn2)cc1)c1ccc2sc(C(F)(F)P(=O)(O)O)c(Br)c2c1 [Compound 64] |
| 3050 nM | 2160 nM | O=C(NCc1cccnc1)c1ccc2sc(C(F)(F)P(=O)(O)O)c(Br)c2c1 [Compound 11] |
| 6.3 nM | 12.4 nM | Cc1cc(S(C)(=O)=O)ccc1COc1cc(C(N)=O)cc2c(Br)c(C(F)(F)P(=O)(O)O)sc12 [Compound 391] |
| 241 nM |  | NC(=O)c1cc(CCCCC(F)(F)F)c2sc(C(F)(F)P(=O)(O)O)c(Br)c2c1 [Compound 296, ((3-bromo-5-carbamoyl-7-(5,5,5-trifluoropentyl)benzo[b]thiophen-2-yl)difluoromethyl)phosphonic acid] |
| 1170 nM |  | CNC(=O)COc1cc(C(N)=O)cc2c(Br)c(C(F)(F)P(=O)(O)O)sc12 [Compound 246] |
| 133 nM |  | CC(C)(O)CCOc1cc(C(=O)NCc2cccnn2)cc2c(Br)c(C(F)(F)P(=O)(O)O)sc12 [Compound 169] |
| 335 nM |  | CCCCSc1cc(C(N)=O)cc2c(Br)c(C(F)(F)P(=O)(O)O)sc12 [Compound 309] |

| Structure (SMILES) | IC50 (human PTPN2 (1-387)) | IC50 (human PTPN1 (1-435)) |
| --- | --- | --- |
| NC(c1cc(OCCCC(F)(F)F)c2sc(C(F)(F)P(=O)(O)O)c(Br)c2c1)C(F)(F)F (single isomer, unassigned) [Compound 261, (R or S)-((5-(1-amino-2,2,2-trifluoroethyl)-3-bromo-7-(4,4,4-trifluorobutoxy)benzo[b]thiophen-2-yl)difluoromethyl)phosphonic acid] | 5880 nM | 2020 nM |
| O=C(NCc1cc(C2CC2)on1)c1ccc2sc(C(F)(F)P(=O)(O)O)c(Br)c2c1 [Compound 189] | 1320 nM | 990 nM |
| CS(=O)(=O)NCc1cc(OCCCC(F)(F)F)c2sc(C(F)(F)P(=O)(O)O)c(Br)c2c1 [Compound 450, ((3-bromo-5-(methylsulfonamidomethyl)-7-(4,4,4-trifluorobutoxy)benzo[b]thiophen-2-yl)difluoromethyl)phosphonic acid] | 227 nM | 175 nM |
| C[Si](C)(C)CCc1cc(C(N)=O)cc2c(Br)c(C(F)(F)P(=O)(O)O)sc12 [Compound 314] | 52.6 nM | 47.5 nM |
| Cc1c[nH]c(CNC(=O)c2ccc3sc(C(F)(F)P(=O)(O)O)c(Br)c3c2)n1 [Compound 198] | 5460 nM | 5710 nM |
| N#Cc1cc(C(=O)NCc2cccnn2)cc2c(Br)c(C(F)(F)P(=O)(O)O)sc12 [Compound 161] | 344 nM | 446 nM |
| O=P(O)(O)C(F)(F)c1sc2c(OCCCC(F)(F)F)cc(CN3CCOCC3)cc2c1Br [Compound 263, ((3-bromo-5-(morpholinomethyl)-7-(4,4,4-trifluorobutoxy)benzo[b]thiophen-2-yl)difluoromethyl)phosphonic acid] | 651 nM | 386 nM |
| C[C@H](NC(=O)c1ccc2sc(C(F)(F)P(=O)(O)O)c(Br)c2c1)c1ccccn1 [Compound 185] | 5200 nM | 3390 nM |
| O=C(NCc1ccon1)c1ccc2sc(C(F)(F)P(=O)(O)O)c(Br)c2c1 [Compound 179] | 2570 nM | 2840 nM |
| Cn1cnc(CNC(=O)c2ccc3sc(C(F)(F)P(=O)(O)O)c(Br)c3c2)n1 [Compound 181] | 4100 nM | 2420 nM |
| O=P(O)(O)C(F)(F)c1sc2c(OCCCC(F)(F)F)cc(O)cc2c1Br [Compound 419, ((3-bromo-5-hydroxy-7-(4,4,4-trifluorobutoxy)benzo[b]thiophen-2-yl)difluoromethyl)phosphonic acid] | 345 nM |  |
| Cc1nnc(-c2cc(OCCCC(F)(F)F)c3sc(C(F)(F)P(=O)(O)O)c(Br)c3c2)[nH]1 [Compound 417, ((3-bromo-5-(5-methyl-4H-1,2,4-triazol-3-yl)-7-(4,4,4-trifluorobutoxy)benzo[b]thiophen-2-yl)difluoromethyl)phosphonic acid] | 9.08 nM |  |
